The target of assay [1] is Voltage-dependent L-type calcium channel subunit alpha-1C (Homo sapiens, UniProt Q13936). It counts as functional, cell-based.
Another assay concerns the target T1, Androgen receptor (Rattus norvegicus, UniProt P15207).
T1 sequence (P15207 whole entry): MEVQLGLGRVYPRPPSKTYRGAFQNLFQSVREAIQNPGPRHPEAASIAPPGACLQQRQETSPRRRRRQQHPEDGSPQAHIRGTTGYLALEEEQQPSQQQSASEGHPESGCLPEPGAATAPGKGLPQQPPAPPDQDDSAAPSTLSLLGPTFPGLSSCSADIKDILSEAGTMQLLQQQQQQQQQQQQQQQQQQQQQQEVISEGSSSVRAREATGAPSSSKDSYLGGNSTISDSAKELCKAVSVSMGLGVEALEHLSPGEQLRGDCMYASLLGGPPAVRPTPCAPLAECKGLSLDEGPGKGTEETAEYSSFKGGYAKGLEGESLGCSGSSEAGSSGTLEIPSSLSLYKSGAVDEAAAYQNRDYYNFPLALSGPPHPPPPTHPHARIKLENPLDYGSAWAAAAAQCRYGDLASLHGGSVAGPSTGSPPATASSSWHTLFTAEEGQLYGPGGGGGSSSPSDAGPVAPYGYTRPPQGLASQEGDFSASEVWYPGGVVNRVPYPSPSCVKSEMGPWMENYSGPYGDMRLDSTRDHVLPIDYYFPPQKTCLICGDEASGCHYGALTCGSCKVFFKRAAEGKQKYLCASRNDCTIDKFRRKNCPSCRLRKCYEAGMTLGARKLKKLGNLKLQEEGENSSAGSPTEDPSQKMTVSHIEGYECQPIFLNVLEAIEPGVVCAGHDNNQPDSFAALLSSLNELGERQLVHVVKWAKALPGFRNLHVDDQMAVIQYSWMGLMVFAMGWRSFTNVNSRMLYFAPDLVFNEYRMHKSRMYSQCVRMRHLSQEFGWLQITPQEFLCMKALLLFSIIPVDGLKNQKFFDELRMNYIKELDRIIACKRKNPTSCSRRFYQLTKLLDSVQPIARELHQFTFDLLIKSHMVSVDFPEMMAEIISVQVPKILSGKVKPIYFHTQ

The next assay concerns the target D(1A) dopamine receptor (Homo sapiens, UniProt P21728). It counts as functional, cell-based.
The target of assay [2] is T2, Gamma-aminobutyric acid receptor subunit alpha-1/alpha-2/beta-2/gamma-2 (Homo sapiens, UniProt P14867+P18507+P47869+P47870). It counts as functional, cell-based.
Assay [3] deals with T2, Gamma-aminobutyric acid receptor subunit alpha-1/alpha-2/beta-2/gamma-2. The assay is classed as functional, cell-based. This is another data set of the same source.
The next assay concerns the target Histamine H1 receptor (Homo sapiens, UniProt P35367). The assay is classed as functional, cell-based.
The target of a further assay is T3, B1 bradykinin receptor (Homo sapiens, UniProt P46663).
T3 sequence (P46663 whole entry): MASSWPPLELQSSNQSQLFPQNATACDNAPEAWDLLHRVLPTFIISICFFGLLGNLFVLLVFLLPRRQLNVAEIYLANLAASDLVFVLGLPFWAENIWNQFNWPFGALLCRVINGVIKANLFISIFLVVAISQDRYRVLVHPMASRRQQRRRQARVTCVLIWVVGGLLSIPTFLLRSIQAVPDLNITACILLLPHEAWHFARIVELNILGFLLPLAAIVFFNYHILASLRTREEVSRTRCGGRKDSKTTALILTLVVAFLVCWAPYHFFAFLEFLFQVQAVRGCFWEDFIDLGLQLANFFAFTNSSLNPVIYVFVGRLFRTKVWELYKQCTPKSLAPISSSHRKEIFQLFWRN

Assay [4] has as its target T4, Endothelin receptor type B (Homo sapiens, UniProt P24530).
T4 sequence (P24530 whole entry): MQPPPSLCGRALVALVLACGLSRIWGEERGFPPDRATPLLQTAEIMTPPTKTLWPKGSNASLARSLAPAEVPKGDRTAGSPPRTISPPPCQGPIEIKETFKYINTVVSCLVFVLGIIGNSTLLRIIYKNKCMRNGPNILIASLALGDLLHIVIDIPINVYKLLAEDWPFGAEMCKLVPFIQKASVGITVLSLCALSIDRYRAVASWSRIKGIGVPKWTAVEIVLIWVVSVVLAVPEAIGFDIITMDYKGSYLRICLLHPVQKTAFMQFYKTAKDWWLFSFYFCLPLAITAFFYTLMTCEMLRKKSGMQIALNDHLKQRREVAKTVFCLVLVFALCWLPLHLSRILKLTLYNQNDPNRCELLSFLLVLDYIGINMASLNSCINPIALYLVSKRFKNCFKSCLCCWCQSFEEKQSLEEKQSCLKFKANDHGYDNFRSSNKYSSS

Assay [5] deals with Gamma-aminobutyric acid type B receptor subunit 1 (Homo sapiens, UniProt Q9UBS5).
A further assay deals with Glucagon receptor (Homo sapiens, UniProt P47871).
Assay [6] deals with Neurotensin receptor type 1 (Homo sapiens, UniProt P30989).
The next assay addresses Substance-P receptor (Homo sapiens, UniProt P25103).
Assay [7] addresses T5, Peroxisome proliferator-activated receptor gamma (Homo sapiens, UniProt P37231).
T5 sequence (P37231 whole entry): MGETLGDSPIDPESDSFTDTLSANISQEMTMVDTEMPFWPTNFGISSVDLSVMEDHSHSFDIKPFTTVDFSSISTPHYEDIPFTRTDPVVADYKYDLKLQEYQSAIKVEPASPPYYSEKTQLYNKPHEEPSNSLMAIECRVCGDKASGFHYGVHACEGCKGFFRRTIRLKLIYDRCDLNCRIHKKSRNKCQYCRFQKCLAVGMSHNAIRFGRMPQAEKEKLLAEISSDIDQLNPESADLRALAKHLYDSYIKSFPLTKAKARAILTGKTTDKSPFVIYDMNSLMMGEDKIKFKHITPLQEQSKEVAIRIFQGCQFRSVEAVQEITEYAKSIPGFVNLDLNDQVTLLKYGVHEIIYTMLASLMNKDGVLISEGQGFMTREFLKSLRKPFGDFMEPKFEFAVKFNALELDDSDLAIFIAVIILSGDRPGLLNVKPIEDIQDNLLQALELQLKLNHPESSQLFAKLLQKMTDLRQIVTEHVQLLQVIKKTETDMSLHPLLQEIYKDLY
It counts as functional.

Each structure is given as a SMILES string.
Further: assay procedure not described here.

Sequence of Voltage-dependent L-type calcium channel subunit alpha-1C (Q13936 whole entry): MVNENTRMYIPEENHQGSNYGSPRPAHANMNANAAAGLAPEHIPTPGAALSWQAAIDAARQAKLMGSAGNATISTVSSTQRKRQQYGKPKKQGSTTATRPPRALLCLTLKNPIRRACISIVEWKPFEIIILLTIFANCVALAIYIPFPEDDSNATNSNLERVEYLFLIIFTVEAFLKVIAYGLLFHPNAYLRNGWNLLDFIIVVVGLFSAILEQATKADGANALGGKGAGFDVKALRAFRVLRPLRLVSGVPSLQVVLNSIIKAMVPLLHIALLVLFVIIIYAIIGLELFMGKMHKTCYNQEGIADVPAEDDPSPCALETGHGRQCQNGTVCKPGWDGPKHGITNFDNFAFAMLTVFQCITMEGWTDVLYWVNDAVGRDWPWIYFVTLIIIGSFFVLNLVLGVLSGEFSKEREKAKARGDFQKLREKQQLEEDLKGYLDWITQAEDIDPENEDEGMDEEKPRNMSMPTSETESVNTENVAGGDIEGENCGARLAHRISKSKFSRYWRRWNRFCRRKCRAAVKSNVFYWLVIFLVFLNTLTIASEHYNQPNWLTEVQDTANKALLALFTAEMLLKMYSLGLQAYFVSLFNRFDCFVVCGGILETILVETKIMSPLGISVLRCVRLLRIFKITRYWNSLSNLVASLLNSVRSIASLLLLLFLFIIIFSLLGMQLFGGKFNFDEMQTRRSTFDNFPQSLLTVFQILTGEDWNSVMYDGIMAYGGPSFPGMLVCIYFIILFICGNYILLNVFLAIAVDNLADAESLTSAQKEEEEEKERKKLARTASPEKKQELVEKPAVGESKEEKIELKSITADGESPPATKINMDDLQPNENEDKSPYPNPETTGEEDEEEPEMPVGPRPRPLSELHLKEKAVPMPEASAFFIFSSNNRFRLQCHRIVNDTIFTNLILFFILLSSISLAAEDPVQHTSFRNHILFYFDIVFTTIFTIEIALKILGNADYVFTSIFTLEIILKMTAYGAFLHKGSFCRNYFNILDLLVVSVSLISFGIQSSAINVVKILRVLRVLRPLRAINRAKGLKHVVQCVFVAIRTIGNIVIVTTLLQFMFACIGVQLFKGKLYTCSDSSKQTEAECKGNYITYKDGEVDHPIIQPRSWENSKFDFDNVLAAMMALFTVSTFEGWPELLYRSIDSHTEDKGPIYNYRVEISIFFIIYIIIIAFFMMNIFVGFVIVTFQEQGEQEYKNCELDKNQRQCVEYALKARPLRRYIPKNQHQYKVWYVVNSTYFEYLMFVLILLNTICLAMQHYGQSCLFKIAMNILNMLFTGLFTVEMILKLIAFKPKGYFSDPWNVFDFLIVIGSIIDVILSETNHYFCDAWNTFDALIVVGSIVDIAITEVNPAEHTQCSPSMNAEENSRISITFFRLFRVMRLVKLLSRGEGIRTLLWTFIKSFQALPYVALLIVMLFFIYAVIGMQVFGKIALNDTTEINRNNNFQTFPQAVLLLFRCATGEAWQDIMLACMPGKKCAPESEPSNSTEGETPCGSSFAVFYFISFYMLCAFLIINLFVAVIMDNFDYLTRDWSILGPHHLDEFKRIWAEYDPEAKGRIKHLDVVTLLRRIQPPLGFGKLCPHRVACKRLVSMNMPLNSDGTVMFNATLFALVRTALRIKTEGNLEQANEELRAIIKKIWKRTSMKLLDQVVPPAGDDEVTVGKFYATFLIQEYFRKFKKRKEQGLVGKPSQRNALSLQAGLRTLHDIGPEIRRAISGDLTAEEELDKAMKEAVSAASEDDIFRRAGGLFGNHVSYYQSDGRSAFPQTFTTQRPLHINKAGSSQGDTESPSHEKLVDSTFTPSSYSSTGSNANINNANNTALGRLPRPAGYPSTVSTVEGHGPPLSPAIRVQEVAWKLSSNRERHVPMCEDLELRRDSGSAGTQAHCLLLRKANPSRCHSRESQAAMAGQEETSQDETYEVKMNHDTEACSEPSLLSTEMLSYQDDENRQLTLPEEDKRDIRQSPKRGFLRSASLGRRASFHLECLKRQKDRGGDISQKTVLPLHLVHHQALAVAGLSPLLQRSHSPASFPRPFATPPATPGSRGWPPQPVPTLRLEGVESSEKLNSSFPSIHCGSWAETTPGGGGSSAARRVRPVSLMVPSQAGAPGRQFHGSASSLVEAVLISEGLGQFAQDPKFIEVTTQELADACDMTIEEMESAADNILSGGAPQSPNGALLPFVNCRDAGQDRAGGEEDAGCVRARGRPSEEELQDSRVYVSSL
Sequence of Histamine H1 receptor (P35367 whole entry): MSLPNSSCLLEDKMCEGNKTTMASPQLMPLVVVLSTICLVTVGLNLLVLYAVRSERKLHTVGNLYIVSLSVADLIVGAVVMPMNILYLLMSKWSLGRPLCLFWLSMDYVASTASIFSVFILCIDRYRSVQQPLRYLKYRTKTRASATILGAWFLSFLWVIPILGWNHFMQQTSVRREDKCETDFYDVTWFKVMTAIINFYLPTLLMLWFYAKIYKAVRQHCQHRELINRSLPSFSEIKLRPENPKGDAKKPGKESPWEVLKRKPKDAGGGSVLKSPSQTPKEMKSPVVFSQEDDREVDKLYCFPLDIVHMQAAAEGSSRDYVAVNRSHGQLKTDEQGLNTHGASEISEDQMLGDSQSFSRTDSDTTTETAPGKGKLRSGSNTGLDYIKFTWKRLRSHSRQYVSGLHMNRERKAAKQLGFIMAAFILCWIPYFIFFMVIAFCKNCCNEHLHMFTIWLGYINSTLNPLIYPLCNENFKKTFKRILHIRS
T2 sequence (P14867 whole entry): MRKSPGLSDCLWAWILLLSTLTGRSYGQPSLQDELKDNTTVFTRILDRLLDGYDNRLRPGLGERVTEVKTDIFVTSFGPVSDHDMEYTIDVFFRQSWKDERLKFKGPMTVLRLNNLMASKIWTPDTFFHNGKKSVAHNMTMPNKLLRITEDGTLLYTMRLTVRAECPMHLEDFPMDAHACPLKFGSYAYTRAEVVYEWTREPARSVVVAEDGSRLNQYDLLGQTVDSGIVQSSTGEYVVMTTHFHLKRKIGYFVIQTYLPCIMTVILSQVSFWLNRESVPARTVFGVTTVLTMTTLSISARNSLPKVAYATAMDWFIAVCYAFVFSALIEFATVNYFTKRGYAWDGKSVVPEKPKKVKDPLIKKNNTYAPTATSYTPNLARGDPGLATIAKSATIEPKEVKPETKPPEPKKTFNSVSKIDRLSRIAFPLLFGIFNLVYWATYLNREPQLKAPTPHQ
T2 sequence (P47870 whole entry): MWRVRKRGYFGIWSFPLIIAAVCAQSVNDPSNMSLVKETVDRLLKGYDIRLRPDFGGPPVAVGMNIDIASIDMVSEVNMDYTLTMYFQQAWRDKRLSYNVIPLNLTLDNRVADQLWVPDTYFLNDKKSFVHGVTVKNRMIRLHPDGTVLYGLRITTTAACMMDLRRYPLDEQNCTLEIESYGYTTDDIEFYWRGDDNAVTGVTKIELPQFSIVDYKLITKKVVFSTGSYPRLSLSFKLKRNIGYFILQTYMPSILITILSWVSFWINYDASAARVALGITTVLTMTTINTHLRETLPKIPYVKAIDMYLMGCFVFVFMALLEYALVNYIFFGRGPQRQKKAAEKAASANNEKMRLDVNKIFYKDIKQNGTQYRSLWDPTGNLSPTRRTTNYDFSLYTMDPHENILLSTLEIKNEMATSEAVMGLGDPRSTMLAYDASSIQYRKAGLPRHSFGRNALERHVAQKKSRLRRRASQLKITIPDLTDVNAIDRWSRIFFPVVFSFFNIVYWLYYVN
T2 sequence (P18507 whole entry): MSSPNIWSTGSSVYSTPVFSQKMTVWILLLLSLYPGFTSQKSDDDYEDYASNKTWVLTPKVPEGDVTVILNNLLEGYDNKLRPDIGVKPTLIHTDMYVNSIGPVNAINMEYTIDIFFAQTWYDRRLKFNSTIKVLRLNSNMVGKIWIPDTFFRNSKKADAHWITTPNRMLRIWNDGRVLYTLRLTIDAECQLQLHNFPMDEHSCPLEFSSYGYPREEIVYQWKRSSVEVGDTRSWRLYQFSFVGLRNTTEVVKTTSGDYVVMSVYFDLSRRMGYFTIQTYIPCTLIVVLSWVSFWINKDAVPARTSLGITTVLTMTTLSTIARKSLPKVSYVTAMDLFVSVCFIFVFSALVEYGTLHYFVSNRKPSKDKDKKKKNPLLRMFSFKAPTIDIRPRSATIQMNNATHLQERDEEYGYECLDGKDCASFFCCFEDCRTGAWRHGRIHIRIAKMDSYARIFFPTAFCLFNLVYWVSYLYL
T2 sequence (P47869 whole entry): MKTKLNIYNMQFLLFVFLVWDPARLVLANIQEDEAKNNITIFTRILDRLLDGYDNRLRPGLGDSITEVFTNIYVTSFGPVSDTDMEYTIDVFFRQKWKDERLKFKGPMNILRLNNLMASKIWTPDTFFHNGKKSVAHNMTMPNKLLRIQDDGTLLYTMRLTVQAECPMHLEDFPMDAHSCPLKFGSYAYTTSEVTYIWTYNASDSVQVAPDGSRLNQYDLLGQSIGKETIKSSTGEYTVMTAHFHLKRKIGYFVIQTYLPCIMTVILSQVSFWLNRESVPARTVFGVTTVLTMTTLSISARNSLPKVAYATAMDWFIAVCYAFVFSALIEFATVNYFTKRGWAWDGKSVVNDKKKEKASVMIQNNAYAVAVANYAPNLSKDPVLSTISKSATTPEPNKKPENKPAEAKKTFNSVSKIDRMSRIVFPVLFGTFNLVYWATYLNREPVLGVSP
Sequence of Neurotensin receptor type 1 (P30989 whole entry): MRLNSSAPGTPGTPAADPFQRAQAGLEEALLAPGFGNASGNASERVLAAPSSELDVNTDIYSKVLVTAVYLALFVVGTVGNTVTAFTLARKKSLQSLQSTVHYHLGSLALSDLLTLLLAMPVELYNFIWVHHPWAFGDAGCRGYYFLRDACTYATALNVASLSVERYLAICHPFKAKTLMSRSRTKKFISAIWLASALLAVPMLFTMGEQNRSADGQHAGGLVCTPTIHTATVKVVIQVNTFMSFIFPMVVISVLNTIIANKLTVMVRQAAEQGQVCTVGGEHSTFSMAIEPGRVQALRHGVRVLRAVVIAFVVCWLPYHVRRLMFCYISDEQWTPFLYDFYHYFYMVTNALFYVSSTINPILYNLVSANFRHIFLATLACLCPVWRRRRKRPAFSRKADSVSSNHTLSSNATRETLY

In general, AC50 refers to the concentration giving half of the maximal activity seen. For `Clc1ccc(CCCOCCCN2CCCCC2)cc1` [PITOLISANT], in [1], the AC50 came out at 10.4 µM.
With `COC(=O)C1=C(C)NC(C)=C(C(=O)OC(C)(C)CN(C)CCC(c2ccccc2)c2ccccc2)C1c1cccc([N+](=O)[O-])c1` (configuration not stated) [LERCANIDIPINE], the figures for the half-maximal activity concentration (AC50) (at Androgen receptor; in [1]) were greater than 30 µM and greater than 50 µM, respectively.
With `CN1CCC(=C2c3ccccc3CCc3sccc32)CC1` [PIZOTYLINE], the concentration at half-maximal activity (AC50) is 0.65 µM on D(1A) dopamine receptor, greater than 30 µM in assay [2], greater than 30 µM in assay [3] and greater than 30 µM at Histamine H1 receptor.
`CC(CC(c1ccccc1)c1ccccc1)NC(C)(C)C` (configuration not stated) [TERODILINE]: the AC50 in [1] was greater than 50 µM.
With `CCCCc1ncc(/C=C(\Cc2cccs2)C(=O)O)n1Cc1ccc(C(=O)O)cc1` [EPROSARTAN], the concentration at half-maximal activity (AC50) was greater than 30 µM at B1 bradykinin receptor; greater than 30 µM in assay [4]; greater than 10 µM in [5]; greater than 30 µM on Glucagon receptor; greater than 30 µM at Histamine H1 receptor; greater than 30 µM in assay [6]. The same compound had a half-maximal activity concentration (AC50) at Substance-P receptor greater than 10 µM.
For the compound `COC(=O)C1=C(C)NC(C)=C(C(=O)OC2CCCN(Cc3ccccc3)C2)C1c1cccc([N+](=O)[O-])c1` (configuration not stated) [BENIDIPINE], the AC50 in assay [1] was found to be 1.9 µM.
With `CCN(CC)C(=O)N[C@H]1C[C@@H]2c3cccc4[nH]cc(c34)C[C@H]2N(C)C1` [TERGURIDE], the AC50 (in [2]; in [3]; at Histamine H1 receptor; in [7]) was greater than 30 µM throughout.
As to `CC(=O)O[C@H]1CC[C@@]2(C)C(=CC[C@@H]3[C@@H]2CC[C@]2(C)C(c4cccnc4)=CC[C@@H]32)C1` [ABIRATERONE ACETATE], the AC50 in assay [1] and in [7] was greater than 30 µM each time.
